Source: patent US20190255144A1, “SPECIFIC OLIGOPEPTIDES AS ANTI-ANGIOGENIC DRUGS” (NEURONAX, priority 2014, published 2019)
Several values for one entry are separate records, joined by “and”; a condition that tells them apart may be missing. Identical values can stand only once.

Legend:
[1] = test system: tumors from subcutaneous heterotopic grafts; test: Tumors from subcutaneous heterotopic grafts in nude mouse: Ki67, CD31, tumor volume; assay type: in vivo; conditions: for Tumor Volume D0: day 0 after injection of cancer cells, treatment in hydrogel injected on 21st day; for Tumor Volume D5: day 5 after injection of cancer cells; for Tumor Volume D5 / Tumor Volume D12 / Tumor Volume D17 / Tumor Volume D19: before treatment (21st day); for Tumor Volume D12: day 12 after injection of cancer cells; for Tumor Volume D17: day 17 after injection of cancer cells; for Tumor Volume D19: day 19 after injection of cancer cells; for Tumor Volume D21: day 21 after injection of cancer cells, day of treatment injection in hydrogel; for Tumor Volume D23: day 23 after injection of cancer cells, 48 hours after treatment in hydrogel; for Ki67 labeling quantification, Mean Center / CD31 labeling quantification, Center: tumor center
Source text: FIGS. 7A to 7E show the results of the analysis of the activity of the oligopeptide according to the invention on the proliferation, the vascularization, and the tumor growth in nude mice: • The images A, B and C of FIG. 7A show the immunolabeling of Ki-67 on tumor sections treated by H2O, TSP-1 or the oligopeptide according to the invention respectively. • The images D, E and F of FIG. 7A are magnifications (2×) of FIGS. A, B and C. • The images G, H and I of FIG. 7A represent the immunolabeling of CD31 on tumor sections that are treated by H2O, TSP-1 or the oligopeptide according to the invention respectively (the bars of the scale correspond to 500 μm). • The images J, K and L of FIG. 7A are magnifications (2×) of the images G, H and I.
The Ki-67 labeling was quantified under the various conditions using imageJ software, and comparisons between the center and the edge of tumors and between the conditions were carried out (FIG. 7B) by analysis of variances (ANOVA test). A value of p<0.05 is considered to be significant. * p<0.05 that is compared to the center of the same tumors; $ p<0.05 and $$ p<0.01 that is compared to the control. • The CD31 labeling was quantified under the various conditions using image J software, and comparisons between the center and the edge of tumors and between the conditions were carried out (FIG. 7C) by analysis of variances (ANOVA test). […] The injections of the treatments (hydrogel by itself, TSP-1 and the oligopeptide according to the invention (NX) were carried out on the 21st day (black arrow)). The comparison of the tumor sizes in comparison to the controls was carried out by analysis of variances (ANOVA test). ** p<0.01; *** p<0.001.
The experimentation on the mouse confirms the results that are obtained with the CAM model. In this case, the tumors were obtained from subcutaneous heterotopic grafts in the area of the leg of a nude mouse (FIGS. 7B, 7C and 7E).
Tables 6, 7 and 8: These tables correspond to the raw values that are obtained during various analyses conducted on the tumors that are treated in vivo. Analysis of the proliferation (Ki67 labeling quantification) (F), analysis of the vascularization (CD31 labeling quantification) (G) and analysis of the tumor growth as a function of time (measurement of the tumor volume) (H). “con,” “CTRL” and “hydrogel” treatments are control conditions, “TSP” and “TSP1” are the treatments with thrombospondin 1 (TSP-1), and NX is the treatment with the peptide according to the invention

U87-MG cells = test: Proteome array of supernatants of U87-MG cells (proteins involved in angiogenesis); assay type: cell-based; conditions: for DPPIV/CD 26, proteome array / Endoglin/CD105, proteome array / Endothelin-1 (ET-1), proteome array / IGFBP-1, proteome array / IGFBP-3, proteome array / IL-8/CXCL8, proteome array / MCP-1/CCL2, proteome array / NRG1-β1/HRG1-β1, proteome array / Pentraxin 3 (PTX3)/TSG-14, proteome array / Serpin E1/Pal-1, proteome array / TIMP-1, proteome array / TIMP-4, proteome array / TSP-1, proteome array / VEGF, proteome array / uPA, proteome array: supernatant of U87-MG after treatment
Source text: (§1) FIGS. 2A to 2C represent analysis results of soluble factors that occur in angiogenesis: • Supernatants of U87-MG cells were studied by proteome array (FIGS. 2A and 2B) for the research of proteins involved in angiogenesis, in the presence of sterile water, TSP-1 and the oligopeptide according to the invention. The secretions of VEGFA via the U87-MG in the medium after treatments with sterile water, TSP-1 and the oligopeptide according to the invention, were metered by ELISA from supernatants (FIG. 2C).

[2] = test system: secretions of VEGFA via the U87-MG; test: ELISA metering of VEGF in the supernatant of U87-MG; assay type: cell-based; conditions: for VEGF ELISA reading, Val1 / VEGF ELISA reading, Val2 / VEGF Mean / VEGF pg/mL1 / VEGF pg/mL2 / VEGF ELISA reading, Mean: supernatant of U87-MG (SN U87) after treatment; for VEGF ELISA reading, Mean: mean of Val1 and Val2
Source text: as §1

HUVECs or HBMECs = test: Proliferation of endothelial cells; assay type: cell-based; conditions: in vitro
HBMECs = test: Migration of endothelial cells; assay type: cell-based
[3] = nude mouse tumor sections, tumor edge

Row | Substance | Tumor Volume D0 ([1]; nude mice) [mm^3] | Tumor Volume D5 ([1]; nude mice) [mm^3] | Tumor Volume D12 ([1]; nude mice) [mm^3] | Tumor Volume D17 ([1]; nude mice) [mm^3] | Tumor Volume D19 ([1]; nude mice) [mm^3] | Tumor Volume D21 ([1]; nude mice) [mm^3] | Tumor Volume D23 ([1]; nude mice) [mm^3] | Ki67 labeling quantification, Mean Center ([1]; nude mouse tumor sections) | Ki67 labeling quantification, Mean Edge [1, 3] | DPPIV/CD 26, proteome array (U87-MG cells) | Endoglin/CD105, proteome array (U87-MG cells) | Endothelin-1 (ET-1), proteome array (U87-MG cells) | IGFBP-1, proteome array (U87-MG cells) | IGFBP-3, proteome array (U87-MG cells) | IL-8/CXCL8, proteome array (U87-MG cells) | MCP-1/CCL2, proteome array (U87-MG cells) | NRG1-β1/HRG1-β1, proteome array (U87-MG cells) | Pentraxin 3 (PTX3)/TSG-14, proteome array (U87-MG cells) | Serpin E1/Pal-1, proteome array (U87-MG cells) | TIMP-1, proteome array (U87-MG cells) | further results
1 | thrombospondin 1 [TSP, reference compound] | 0 | 33.55 | 29.93 | 49.88 | 81.07 | 112.5 | 101.9 | 200.3 | 228.2 | 0 | 0.09236 | 0.0994 | 1.724 | 0.5713 | 2.901 | 0.1534 | 0 | 0.7118 | 0.855 | 4.593 | CD31 labeling quantification, Center ([1]; nude mouse tumor sections, raw values, listed as TSP1): 66 and 53 and 63 and 56; CD31 labeling quantification, Edge ([1]; nude mouse tumor sections, tumor edge, raw values, listed as TSP1): 53 and 42 and 39 and 45; IL-8 secretion (in words) (U87-MG cells; medium of treated U87-MG cells): significant increase in IL-8; TIMP-4, proteome array (U87-MG cells): 2.041; TSP-1, proteome array (U87-MG cells): 0.08481; VEGF, proteome array (U87-MG cells): 1.397; uPA, proteome array (U87-MG cells): 1.489; VEGF ELISA reading, Val1 [2]: 0.5; VEGF ELISA reading, Val2 [2]: 0.518; VEGF Mean [2]: 636.2 pg/mL; VEGF pg/mL1 [2]: 621.2 pg/mL; VEGF pg/mL2 [2]: 651.2 pg/mL; VEGF ELISA reading, Mean [2]: 0.509
2 | —W—S-G-W—S—S—C—S—R—S—C-G- (WSGWSSCSRSCG; Oligopeptide derived from SCO-Spondin) [NX] | 0 | 46.46 | 39.04 | 70.6 | 78.82 | 135.6 | 68.03 | 181.7 | 49.75 | 0.08222 | 0 | 0.09418 | 1.165 | 0.1856 | 1.698 | 1.861 | 0.1465 | 0.6179 | 0.8632 | 3.888 | Cell proliferation, Ki-67 labeling (in words) ([1]; nude mice tumors): decrease in the Ki-67 labeling; CD31 labeling (in words) ([1]; nude mice tumors, periphery, compared with control): reduction in the CD31 labeling on the periphery; Tumor volume change (in words) ([1]; nude mice, 48 hours after the treatment): decrease in volume; CD31 labeling quantification, Center ([1]; nude mouse tumor sections, raw values): 26 and 40 and 28 and 38; MCP-1 secretion (in words) (U87-MG cells; medium of treated U87-MG cells): large increase in MCP-1; TIMP-4, proteome array (U87-MG cells): 2.15; TSP-1, proteome array (U87-MG cells): 0.07983; VEGF, proteome array (U87-MG cells): 1.021; uPA, proteome array (U87-MG cells): 1.209; VEGF-A in the supernatant of U87-MG (in words) [2]: reduction in VEGF-A; VEGF ELISA reading, Val1 [2]: 0.333; VEGF ELISA reading, Val2 [2]: 0.266; VEGF Mean [2]: 287 pg/mL; VEGF pg/mL1 [2]: 342.8 pg/mL; VEGF pg/mL2 [2]: 231.2 pg/mL; VEGF ELISA reading, Mean [2]: 0.2995; Proliferation of HUVECs or HBMECs (HUVECs or HBMECs): does not modulate the proliferation; Migration of the HBMECs induced by glioblastoma tumor cells (HBMECs; brought into contact with the U87-MG or HBMECs): inhibits; Migration in the presence of an angiogenic factor (HBMECs; in the presence of VEGF or bFGF): promotes the migration
